Read-outs that look alike come from different tables or passages of the source.
Key:
SIK2 = SIK2 (Homo sapiens, UniProt Q9H0K1); test: Kinase panel; format: biochemical; details: SIK2, 1 µM; read-out: residual enzyme activity
How it was run: (§1)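 1 µM, one concentration only, biochemical panel format. Residual activity computed per kinase; threshold for identification: residual ≤40%.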

ARAF = test: Kinase panel; format: biochemical; details: 1 µM
How it was run: as §1

CDK4/CYCLIN D3 = CDK4/CYCLIN D3 (Homo sapiens, UniProt P11802); test: Kinase panel; format: biochemical; details: CDK4/cyclin D3, 1 µM; read-out: residual enzyme activity
How it was run: as §1

HPK1/MAP4K1 = HPK1/MAP4K1 (Homo sapiens, UniProt Q92918); test: Kinase panel; format: biochemical; details: HPK1/MAP4K1, 1 µM; read-out: residual enzyme activity
How it was run: as §1

TAOK3/JIK = TAOK3/JIK (Homo sapiens, UniProt Q9H2K8); test: Kinase panel; format: biochemical; details: read-out: residual enzyme activity
How it was run: as §1

PKCB1 = PKCB1 (Homo sapiens, UniProt P05771); test: Kinase panel; format: biochemical; details: read-out: residual enzyme activity
How it was run: as §1

CDK3/CYCLIN E2 = CDK3/CYCLIN E2 (Homo sapiens, UniProt Q00526); test: Kinase panel; format: biochemical; details: CDK3/cyclin E2, 1 µM; read-out: residual enzyme activity
How it was run: as §1

PKCIOTA = PKCIOTA (Homo sapiens, UniProt P41743); test: Kinase panel; format: biochemical; details: read-out: residual enzyme activity
How it was run: as §1

TGFBR2 = TGFBR2 (Homo sapiens, UniProt P37173); test: Kinase panel; format: biochemical; details: TGFBR2, 1 µM; read-out: residual enzyme activity
How it was run: as §1

PKCTHETA = PKCTHETA (Homo sapiens, UniProt Q04759); test: Kinase panel; format: biochemical; details: read-out: residual enzyme activity
How it was run: as §1

TYK2 = TYK2 (Homo sapiens, UniProt P29597); test: Kinase panel; format: biochemical; details: TYK2, 1 µM; read-out: residual enzyme activity
How it was run: as §1

PYK2 = PYK2 (Homo sapiens, UniProt Q14289); test: Kinase panel; format: biochemical; details: PYK2, 1 µM; read-out: residual enzyme activity
How it was run: as §1

FGFR2 = FGFR2 (Homo sapiens, UniProt P21802); test: Kinase panel; format: biochemical; details: FGFR2, 1 µM; read-out: residual enzyme activity
How it was run: as §1

ROCK2 = ROCK2 (Homo sapiens, UniProt O75116); test: Kinase panel; format: biochemical; details: ROCK2, 1 µM; read-out: residual enzyme activity
How it was run: as §1

MNK2 = MNK2 (Homo sapiens, UniProt Q9HBH9); test: Kinase panel; format: biochemical; details: MNK2, 1 µM; read-out: residual enzyme activity
How it was run: as §1

C-KIT = C-KIT (Homo sapiens, UniProt P10721); test: Kinase panel; format: biochemical; details: read-out: residual enzyme activity
How it was run: as §1

MLK4 = MLK4 (Homo sapiens, UniProt Q5TCX8); test: Kinase panel; format: biochemical; details: MLK4, 1 µM; read-out: residual enzyme activity
How it was run: as §1

MELK = MELK (Homo sapiens, UniProt Q14680); test: Kinase panel; format: biochemical; details: read-out: residual enzyme activity
How it was run: as §1

PKCD = PKCD (Homo sapiens, UniProt Q05655); test: Kinase panel; format: biochemical; details: read-out: residual enzyme activity
How it was run: as §1

ZAP70 = ZAP70 (Homo sapiens, UniProt P43403); test: Kinase panel; format: biochemical; details: ZAP70, 1 µM; read-out: residual enzyme activity
How it was run: as §1

EPHA7 = EPHA7 (Homo sapiens, UniProt Q15375); test: Kinase panel; format: biochemical; details: EPHA7, 1 µM; read-out: residual enzyme activity
How it was run: as §1

P38D/MAPK13 = P38D/MAPK13 (Homo sapiens, UniProt O15264); test: Kinase panel; format: biochemical; details: read-out: residual enzyme activity
How it was run: as §1

FGFR1 = FGFR1 (Homo sapiens, UniProt P11362); test: Kinase panel; format: biochemical; details: FGFR1, 1 µM; read-out: residual enzyme activity
How it was run: as §1

EPHB1 = EPHB1 (Homo sapiens, UniProt P54762); test: Kinase panel; format: biochemical; details: EPHB1, 1 µM; read-out: residual enzyme activity
How it was run: as §1

CK1G2 = CK1G2 (Homo sapiens, UniProt P78368); test: Kinase panel; format: biochemical; details: read-out: residual enzyme activity
How it was run: as §1

ZIPK/DAPK3 = ZIPK/DAPK3 (Homo sapiens, UniProt O43293); test: Kinase panel; format: biochemical; details: ZIPK/DAPK3, 1 µM; read-out: residual enzyme activity
How it was run: as §1

PKCMU/PRKD1 = PKCMU/PRKD1 (Homo sapiens, UniProt Q15139); test: Kinase panel; format: biochemical; details: PKCmu/PRKD1, 1 µM; read-out: residual enzyme activity
How it was run: as §1

C4-2B = test: Cell line inhibition analysis (CCK-8, 72 h); format: cell-based; details: read-out: Cell growth inhibition GI50 C4-2B
How it was run: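 Cells attached one day, then treated 72 h at 37 °C with nine 3-fold compound dilutions (final 0-50 µM) or DMSO. Growth read by CCK-8 absorbance at 450 nm after 2 h, medium-blank corrected, with a day-0 plate defining 0% growth; GI50 calculated.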

ZAP70, sequence (P43403 whole entry, species assumed): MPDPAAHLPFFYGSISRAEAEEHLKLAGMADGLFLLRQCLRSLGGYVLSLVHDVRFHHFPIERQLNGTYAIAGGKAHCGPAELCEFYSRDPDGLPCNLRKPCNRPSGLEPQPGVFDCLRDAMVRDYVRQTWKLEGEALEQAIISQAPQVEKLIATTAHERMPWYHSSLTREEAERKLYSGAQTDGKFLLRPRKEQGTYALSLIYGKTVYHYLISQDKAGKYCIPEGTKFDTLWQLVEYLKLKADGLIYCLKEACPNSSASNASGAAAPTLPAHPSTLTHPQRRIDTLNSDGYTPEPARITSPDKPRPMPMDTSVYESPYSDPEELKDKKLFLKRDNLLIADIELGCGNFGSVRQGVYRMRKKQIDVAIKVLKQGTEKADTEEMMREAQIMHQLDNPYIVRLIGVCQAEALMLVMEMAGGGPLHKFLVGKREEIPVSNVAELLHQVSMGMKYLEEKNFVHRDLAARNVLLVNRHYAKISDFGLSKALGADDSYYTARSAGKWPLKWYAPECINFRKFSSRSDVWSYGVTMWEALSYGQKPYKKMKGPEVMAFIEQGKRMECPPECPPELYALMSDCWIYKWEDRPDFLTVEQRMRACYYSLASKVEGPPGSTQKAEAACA
TAOK3/JIK, sequence (Q9H2K8 whole entry): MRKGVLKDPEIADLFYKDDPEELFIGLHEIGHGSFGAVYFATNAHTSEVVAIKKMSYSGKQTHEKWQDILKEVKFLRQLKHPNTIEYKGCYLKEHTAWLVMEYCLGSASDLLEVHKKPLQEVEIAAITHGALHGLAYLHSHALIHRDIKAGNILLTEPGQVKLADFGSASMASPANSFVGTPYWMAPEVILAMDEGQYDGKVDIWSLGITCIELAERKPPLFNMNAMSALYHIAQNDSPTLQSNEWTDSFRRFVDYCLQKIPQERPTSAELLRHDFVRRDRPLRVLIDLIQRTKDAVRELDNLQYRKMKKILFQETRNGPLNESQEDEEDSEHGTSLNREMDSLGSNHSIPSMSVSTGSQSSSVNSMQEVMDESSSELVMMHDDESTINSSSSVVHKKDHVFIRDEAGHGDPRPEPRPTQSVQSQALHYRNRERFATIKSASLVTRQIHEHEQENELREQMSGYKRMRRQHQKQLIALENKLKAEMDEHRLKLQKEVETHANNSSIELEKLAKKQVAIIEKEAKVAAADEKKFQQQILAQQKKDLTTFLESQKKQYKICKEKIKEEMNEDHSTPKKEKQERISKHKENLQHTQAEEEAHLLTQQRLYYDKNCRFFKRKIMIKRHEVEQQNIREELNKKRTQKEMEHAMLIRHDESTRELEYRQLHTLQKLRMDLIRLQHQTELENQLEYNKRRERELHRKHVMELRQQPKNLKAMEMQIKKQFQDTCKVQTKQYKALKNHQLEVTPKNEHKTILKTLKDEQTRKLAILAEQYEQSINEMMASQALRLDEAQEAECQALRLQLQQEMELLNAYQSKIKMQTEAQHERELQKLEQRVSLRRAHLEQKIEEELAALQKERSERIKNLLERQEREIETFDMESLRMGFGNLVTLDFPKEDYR
TGFBR2, sequence (P37173 23-567, species assumed): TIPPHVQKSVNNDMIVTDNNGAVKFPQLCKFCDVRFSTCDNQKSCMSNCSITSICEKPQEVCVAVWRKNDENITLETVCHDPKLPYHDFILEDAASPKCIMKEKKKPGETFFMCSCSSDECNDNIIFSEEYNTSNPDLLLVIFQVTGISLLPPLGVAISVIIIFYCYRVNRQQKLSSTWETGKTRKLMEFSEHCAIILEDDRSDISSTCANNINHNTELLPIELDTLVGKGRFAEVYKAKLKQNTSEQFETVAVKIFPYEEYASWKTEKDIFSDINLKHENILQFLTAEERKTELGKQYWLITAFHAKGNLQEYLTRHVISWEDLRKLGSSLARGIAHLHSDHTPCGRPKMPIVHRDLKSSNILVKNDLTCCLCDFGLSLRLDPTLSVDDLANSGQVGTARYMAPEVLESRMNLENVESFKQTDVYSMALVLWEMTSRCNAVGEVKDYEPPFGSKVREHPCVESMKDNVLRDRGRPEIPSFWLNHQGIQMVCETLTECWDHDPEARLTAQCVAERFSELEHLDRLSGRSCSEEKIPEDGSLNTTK
MNK2, sequence (Q9HBH9 whole entry, species assumed): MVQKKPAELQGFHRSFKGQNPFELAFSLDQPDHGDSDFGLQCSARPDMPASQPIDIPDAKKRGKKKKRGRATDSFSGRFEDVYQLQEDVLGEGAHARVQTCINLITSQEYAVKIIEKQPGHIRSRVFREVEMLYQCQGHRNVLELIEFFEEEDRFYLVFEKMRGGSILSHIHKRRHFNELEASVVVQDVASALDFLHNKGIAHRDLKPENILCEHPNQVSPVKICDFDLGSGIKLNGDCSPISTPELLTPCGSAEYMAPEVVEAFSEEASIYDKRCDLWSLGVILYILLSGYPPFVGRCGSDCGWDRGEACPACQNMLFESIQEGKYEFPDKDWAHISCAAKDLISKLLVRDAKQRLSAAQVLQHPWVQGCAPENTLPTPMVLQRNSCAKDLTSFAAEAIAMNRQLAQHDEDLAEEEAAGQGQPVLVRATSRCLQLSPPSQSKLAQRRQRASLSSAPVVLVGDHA
EPHB1, sequence (P54762 18-984, species assumed): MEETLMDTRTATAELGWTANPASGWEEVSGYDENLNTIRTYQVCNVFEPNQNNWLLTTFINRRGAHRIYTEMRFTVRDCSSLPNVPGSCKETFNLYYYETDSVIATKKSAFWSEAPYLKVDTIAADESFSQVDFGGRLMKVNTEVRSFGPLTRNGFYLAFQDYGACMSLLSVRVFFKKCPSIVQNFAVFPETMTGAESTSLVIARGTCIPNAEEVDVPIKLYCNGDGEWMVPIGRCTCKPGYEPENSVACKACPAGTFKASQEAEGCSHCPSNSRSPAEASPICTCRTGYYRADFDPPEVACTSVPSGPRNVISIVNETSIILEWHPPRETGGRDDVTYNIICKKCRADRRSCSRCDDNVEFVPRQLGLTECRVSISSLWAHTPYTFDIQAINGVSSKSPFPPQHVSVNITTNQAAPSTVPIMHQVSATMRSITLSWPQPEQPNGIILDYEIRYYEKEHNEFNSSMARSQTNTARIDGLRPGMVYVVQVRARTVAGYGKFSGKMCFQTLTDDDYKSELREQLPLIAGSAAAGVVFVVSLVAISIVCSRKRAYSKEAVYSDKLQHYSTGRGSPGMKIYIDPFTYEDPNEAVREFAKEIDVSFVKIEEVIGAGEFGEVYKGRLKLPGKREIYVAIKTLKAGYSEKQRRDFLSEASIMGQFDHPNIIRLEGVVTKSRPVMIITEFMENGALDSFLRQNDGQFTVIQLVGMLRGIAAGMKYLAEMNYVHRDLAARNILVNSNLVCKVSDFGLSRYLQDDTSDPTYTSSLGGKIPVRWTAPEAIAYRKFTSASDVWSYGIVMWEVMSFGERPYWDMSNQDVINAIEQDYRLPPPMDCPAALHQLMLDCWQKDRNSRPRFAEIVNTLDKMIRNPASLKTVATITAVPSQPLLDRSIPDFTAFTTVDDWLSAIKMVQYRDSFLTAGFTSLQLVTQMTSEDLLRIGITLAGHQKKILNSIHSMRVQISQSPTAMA
MLK4, sequence (Q5TCX8 whole entry, species assumed): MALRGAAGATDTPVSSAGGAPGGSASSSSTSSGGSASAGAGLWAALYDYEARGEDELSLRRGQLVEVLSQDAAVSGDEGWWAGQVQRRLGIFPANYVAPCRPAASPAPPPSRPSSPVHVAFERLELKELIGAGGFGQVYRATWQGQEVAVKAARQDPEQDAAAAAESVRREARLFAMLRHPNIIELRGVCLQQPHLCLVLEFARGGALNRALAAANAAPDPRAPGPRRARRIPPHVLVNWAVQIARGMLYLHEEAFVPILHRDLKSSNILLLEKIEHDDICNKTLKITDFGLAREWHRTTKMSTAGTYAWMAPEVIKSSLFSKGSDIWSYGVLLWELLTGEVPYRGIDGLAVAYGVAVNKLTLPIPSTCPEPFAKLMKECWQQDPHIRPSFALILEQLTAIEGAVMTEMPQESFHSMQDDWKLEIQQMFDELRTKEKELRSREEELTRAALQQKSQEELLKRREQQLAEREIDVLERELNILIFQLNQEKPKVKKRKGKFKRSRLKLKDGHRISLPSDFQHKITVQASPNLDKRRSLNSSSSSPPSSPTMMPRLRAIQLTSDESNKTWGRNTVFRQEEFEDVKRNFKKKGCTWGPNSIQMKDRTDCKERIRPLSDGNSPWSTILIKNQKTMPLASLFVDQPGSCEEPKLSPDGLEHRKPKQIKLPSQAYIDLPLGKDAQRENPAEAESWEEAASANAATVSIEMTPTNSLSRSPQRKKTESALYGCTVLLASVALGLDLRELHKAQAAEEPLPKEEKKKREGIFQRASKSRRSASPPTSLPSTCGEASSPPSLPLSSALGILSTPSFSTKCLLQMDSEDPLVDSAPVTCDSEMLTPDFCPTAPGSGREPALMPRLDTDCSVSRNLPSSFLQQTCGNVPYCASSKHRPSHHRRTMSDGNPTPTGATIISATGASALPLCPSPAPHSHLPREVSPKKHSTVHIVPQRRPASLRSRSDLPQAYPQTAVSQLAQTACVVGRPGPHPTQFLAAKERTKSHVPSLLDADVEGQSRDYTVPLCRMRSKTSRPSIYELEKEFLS
ZIPK/DAPK3, sequence (O43293 whole entry): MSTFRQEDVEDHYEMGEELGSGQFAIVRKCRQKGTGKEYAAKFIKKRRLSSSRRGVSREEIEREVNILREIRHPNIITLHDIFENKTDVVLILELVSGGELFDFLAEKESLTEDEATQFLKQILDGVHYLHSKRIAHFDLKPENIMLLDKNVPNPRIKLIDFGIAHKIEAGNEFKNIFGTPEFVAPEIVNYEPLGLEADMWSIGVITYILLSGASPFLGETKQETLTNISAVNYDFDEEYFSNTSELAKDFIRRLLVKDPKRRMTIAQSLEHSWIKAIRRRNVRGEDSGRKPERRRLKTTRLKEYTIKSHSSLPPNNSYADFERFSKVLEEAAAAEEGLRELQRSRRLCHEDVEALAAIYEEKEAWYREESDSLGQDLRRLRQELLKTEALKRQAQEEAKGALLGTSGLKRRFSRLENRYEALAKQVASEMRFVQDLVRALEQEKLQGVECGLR

In the case of `Cc1ccc(Nc2ncc3c(n2)C2(CC2)C(=O)N(c2cc(NC(=O)c4cccc(C(F)(F)F)c4)ccc2C)C3)cn1` [Compound 51, N-(4-methyl-3-(2'-((6-methylpyridin-3-yl)amino)-7'-oxo-5'H-spiro[cyclopropane-1,8'-pyrido[4,3-d]pyrimidine]-6'(7'H)-yl)phenyl)-3-(trifluoromethyl)benzamide], the remaining activity at 1 µM (SIK2) was ≤ 40%, the residual enzyme activity (ARAF) was “O (residual enzyme activity values were 40% or less, i.e., inhibited by 60% or more)” and the remaining activity at 1 µM (CDK4/CYCLIN D3) was > 40%. For the same compound, the remaining activity at 1 µM (HPK1/MAP4K1) was ≤ 40%, the remaining activity at 1 µM (TAOK3/JIK) was ≤ 40% and the remaining activity at 1 µM (PKCB1; PKCbl, 1 µM) was > 40%. The remaining activity at 1 µM (CDK3/CYCLIN E2) was > 40%, the remaining activity at 1 µM (PKCIOTA) was > 40% and the remaining activity at 1 µM (TGFBR2) was > 40%. The remaining activity at 1 µM (PKCTHETA) was > 40%, the remaining activity at 1 µM (TYK2) was ≤ 40% and the remaining activity at 1 µM (PYK2) was ≤ 40%. For the same compound, the remaining activity at 1 µM (FGFR2) was ≤ 40%, the remaining activity at 1 µM (ROCK2) was > 40% and the remaining activity at 1 µM (MNK2) was > 40%. For the same compound, the remaining activity at 1 µM (C-KIT; c-Kit) was ≤ 40%, the remaining activity at 1 µM (MLK4) was > 40% and the remaining activity at 1 µM (MELK) was > 40%. The remaining activity at 1 µM (PKCD) was > 40%, the remaining activity at 1 µM (ZAP70) was > 40% and the remaining activity at 1 µM (EPHA7) was ≤ 40%. For the same compound, the remaining activity at 1 µM (P38D/MAPK13; P38d/MAPK13, 1 µM) was > 40%, the remaining activity at 1 µM (FGFR1) was ≤ 40% and the remaining activity at 1 µM (EPHB1) was ≤ 40%. For the same compound, the remaining activity at 1 µM (CK1G2; CKlg2, 1 µM) was > 40%, the remaining activity at 1 µM (ZIPK/DAPK3) was > 40% and the remaining activity at 1 µM (PKCMU/PRKD1) was > 40%.
`Cc1cn(-c2cc(C(=O)Nc3ccc(C)c(N4Cc5cnc(NC6CC6)nc5C5(CC5)C4=O)c3)cc(C(F)(F)F)c2)cn1` [Compound 8, N-(3-(2'-(cyclopropylamino)-7'-oxo-5'H-spiro[cyclopropane-1,8'-pyrido[4,3-d]pyrimidine]-6'(7'H)-yl)-4-methylphenyl)-3-(4-methyl-1H-imidazol-1-yl)-5-(trifluoromethyl)benzamide] was tested, and the remaining activity at 1 µM (SIK2) was > 40%, the residual enzyme activity (ARAF) was “O (residual enzyme activity values were 40% or less, i.e., inhibited by 60% or more)” and the remaining activity at 1 µM (CDK4/CYCLIN D3) was > 40%. The remaining activity at 1 µM (HPK1/MAP4K1) was ≤ 40%, the remaining activity at 1 µM (TAOK3/JIK) was ≤ 40% and the remaining activity at 1 µM (PKCB1; PKCB1, 1 µM) was > 40%. The remaining activity at 1 µM (CDK3/CYCLIN E2) was > 40%, the remaining activity at 1 µM (PKCIOTA) was > 40% and the remaining activity at 1 µM (TGFBR2) was > 40%. For the same compound, the remaining activity at 1 µM (PKCTHETA) was > 40%, the remaining activity at 1 µM (TYK2) was ≤ 40% and the remaining activity at 1 µM (PYK2) was ≤ 40%. For the same compound, the remaining activity at 1 µM (FGFR2) was ≤ 40%, the remaining activity at 1 µM (ROCK2) was > 40% and the remaining activity at 1 µM (MNK2) was > 40%. For the same compound, the remaining activity at 1 µM (C-KIT; C-KIT) was ≤ 40%, the remaining activity at 1 µM (MLK4) was > 40% and the remaining activity at 1 µM (MELK) was > 40%. The remaining activity at 1 µM (PKCD) was > 40%, the remaining activity at 1 µM (ZAP70) was > 40% and the remaining activity at 1 µM (EPHA7) was ≤ 40%. The remaining activity at 1 µM (P38D/MAPK13; P38D/MAPK13, 1 µM) was > 40%, the remaining activity at 1 µM (FGFR1) was ≤ 40% and the remaining activity at 1 µM (EPHB1) was ≤ 40%. The remaining activity at 1 µM (CK1G2; CK1G2, 1 µM) was > 40%, the remaining activity at 1 µM (ZIPK/DAPK3) was > 40% and the remaining activity at 1 µM (PKCMU/PRKD1) was > 40%. For the same compound, the GI50 (C4-2B) was < 1 µM.

Reference: patent EP4722212A1, “NOVEL COMPOUND FOR INHIBITING PROTEIN KINASES AND PHARMACEUTICAL COMPOSITION COMPRISING SAME” (Magicbullettherapeutics Co., Ltd., priority 2023, dated 2024)
